The numbers were not newly measured in patent EP0114993B1, “Renin inhibitory tripeptides” (Merck & Co., Inc., priority 1982, dated 1990), which cites them from elsewhere.

The data set relates to hog renin. To be noted: after the injection of hog renin into nephrectomized rats; Gross et al., Science 175:656, 1971.

Turning to pepstatin, the “blood pressure in vivo” value is recorded as “reduce blood pressure”.
